According to patent US20090030039A1, “Piperidine Derivatives as Cxcr3 Receptor Antagonists” (priority 2006, published 2009):

molecular target: T1, human CXCR3 (Homo sapiens, UniProt P49682); experiment: [35S]GTPγS exchange assay, CXCR3 receptor inhibition (hI-TAC-induced GTPγS-binding); type: biochemical; details: -log IC50 (molar) inhibiting 50% of specific I-TAC-induced GTPγS-binding; membranes of human CXCR3-transfected CHO cells
T1 construct: expressed in transfected cells; host or cells: CHO cells (membrane preparation)
T1 sequence (P49682 1-368): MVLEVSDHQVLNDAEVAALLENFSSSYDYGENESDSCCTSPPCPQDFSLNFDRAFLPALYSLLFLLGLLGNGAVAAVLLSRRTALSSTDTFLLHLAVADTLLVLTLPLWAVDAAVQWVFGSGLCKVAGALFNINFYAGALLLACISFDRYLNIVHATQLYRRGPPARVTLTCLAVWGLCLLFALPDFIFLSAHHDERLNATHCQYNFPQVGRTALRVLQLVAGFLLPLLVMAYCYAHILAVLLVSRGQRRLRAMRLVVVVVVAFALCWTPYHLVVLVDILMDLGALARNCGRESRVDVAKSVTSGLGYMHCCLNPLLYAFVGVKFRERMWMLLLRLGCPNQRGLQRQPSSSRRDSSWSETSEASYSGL
Protocol: CXCR3 Receptor Inhibition was Examined in a [^35S]GTPγS Exchange Assay
The exchange of guanosine 5′-[^35S]triphosphate was measured on membranes of human CXCR3-transfected CHO cells. [^35S]GTPγS exchange assays were performed in 96-well plates with 10 μg of membrane protein/well using basic flashplates (Perkin Elmer). Compounds were dissolved in DMSO and diluted with incubation buffer to yield required concentrations with 9% DMSO. Incubation buffer is composed of 20 mM HEPES, 100 mM NaCl, 3 μM GDP and 1 mM MgCl2, pH 7.4. […] Compound, membranes, hI-TAC (interferon-inducible T-cell alpha chemoattractant) and [^35S]GTPγS were added in a total volume of 200 μl. First, 20 μl of the appropriate compound dilution and 140 μl membranes from CXCR3-CHO cells were dissolved in membrane incubation buffer and pre-incubated for 30 minutes at 30° C. Then, 20 μl of hI-TAC dissolved at 30 nM in incubation buffer was added to the membranes and the mixture containing 1% of DMSO was incubated for another 30 minutes at 30° C. […] After 1 minute shaking and 30 minutes incubation at 30° C., flashplates were centrifuged for 5 minutes at 2500 rpm at room temperature. Flashplate bound radioactivity was determined by liquid scintillation counting. Basal GTPγS-binding was measured in 8 wells with membranes incubated in the same volume with 1% DMSO, without I-TAC. Maximal GTPγS-binding was measured in 8 wells with membranes incubated with 1% DMSO and 3 nM I-TAC. […] IC50 values were calculated using non-linear regression in Graphpad Prism.

Compound	pIC50
O=C1CCC(c2ccccc2)(C2CCN(Cc3ccc(Cl)c(Cl)c3)CC2)C(=O)N1 (stereo not drawn) [Compound 80]	5.9
O=C1CCC(c2cccc(C(=O)NCCCO)c2)(C2CCN(Cc3ccc(Br)cc3)CC2)C(=O)N1 (stereo not drawn) [Compound 91]	5.9
CCN1C(=O)CCC(c2ccccc2)(C2CCN(Cc3ccc(Br)cc3)CC2)C1=O (stereo not drawn) [Compound 126]	5.6
CC(C)N1C(=O)CCC(c2ccccc2)(C2CCN(Cc3ccc(Br)cc3)CC2)C1=O (stereo not drawn) [Compound 127]	5.3
COCCN1C(=O)CCC(c2ccccc2)(C2CCN(Cc3ccc(Br)cc3)CC2)C1=O (stereo not drawn) [Compound 129]	5.7

same assay, conditions: -log IC50 (molar) inhibiting 50% of specific I-TAC-induced GTPγS-binding; membranes of human CXCR3-transfected CHO cells; read-out: pIC50 (converted)

IC50 [µM]	Compound
3.16	COc1ccc(C2(C3CCN(Cc4ccc(Cl)cc4)CC3)CCC(=O)NC2=O)cc1 (stereo not drawn) [Compound 69]
2.51	O=C1CCC(c2ccccc2)(C2CCN(Cc3ccc(Cl)cc3Cl)CC2)C(=O)N1 (stereo not drawn) [Compound 70]
2.51	O=C1CCC(c2cccc(Cl)c2)(C2CCN(Cc3ccc(Cl)cc3Cl)CC2)C(=O)N1 (stereo not drawn) [Compound 71]
6.31	Cc1cccc(C2(C3CCN(Cc4ccc(Cl)cc4Cl)CC3)CCC(=O)NC2=O)c1 (stereo not drawn) [Compound 72]
0.501	O=C1CCC(c2cccc(C(=O)O)c2)(C2CCN(Cc3ccc(Cl)cc3Cl)CC2)C(=O)N1 (stereo not drawn) [Compound 73]
0.251	COc1cccc(C2(C3CCN(Cc4ccc(Cl)c(F)c4)CC3)CCC(=O)NC2=O)c1 (stereo not drawn) [Compound 79]
3.98	O=C1CCC(c2cccc(Cl)c2)(C2CCN(Cc3ccc(Cl)c(Cl)c3)CC2)C(=O)N1 (stereo not drawn) [Compound 81]
3.16	Cc1cccc(C2(C3CCN(Cc4ccc(Cl)c(Cl)c4)CC3)CCC(=O)NC2=O)c1 (stereo not drawn) [Compound 82]
0.398	O=C1CCC(c2cccc(C(=O)O)c2)(C2CCN(Cc3ccc(Cl)c(Cl)c3)CC2)C(=O)N1 (stereo not drawn) [Compound 83]
2	COc1cccc(C2(C3CCN(Cc4ccc(Cl)c(Cl)c4)CC3)CCC(=O)NC2=O)c1 (stereo not drawn) [Compound 84]
0.794	O=C1CCC(c2ccc(F)cc2)(C2CCN(Cc3ccc(Cl)c(Cl)c3)CC2)C(=O)N1 (stereo not drawn) [Compound 85]
1.58	O=C1CCC(c2cccc(Cl)c2)(C2CCN(Cc3ccc(Br)cc3)CC2)C(=O)N1 (stereo not drawn) [Compound 89]
1.58	O=C1CCC(c2cccc(C(F)(F)F)c2)(C2CCN(Cc3ccc(Br)cc3)CC2)C(=O)N1 (stereo not drawn) [Compound 90]
1	O=C1CCC(c2ccc(F)cc2)(C2CCN(Cc3ccc(Br)cc3)CC2)C(=O)N1 (stereo not drawn) [Compound 92]
3.98	COc1ccc(C2(C3CCN(Cc4ccc(Br)cc4)CC3)CCC(=O)NC2=O)cc1 (stereo not drawn) [Compound 93]
1.58	O=C1CCC(c2cccc(Cl)c2)(C2CCN(Cc3ccc(Br)cc3F)CC2)C(=O)N1 (stereo not drawn) [Compound 95]
3.16	O=C1CCC(c2cccc(C(F)(F)F)c2)(C2CCN(Cc3ccc(Br)cc3F)CC2)C(=O)N1 (stereo not drawn) [Compound 96]

IC50 [µM]	Compound
0.501	O=C1CCC(c2cccc(C(=O)O)c2)(C2CCN(Cc3ccc(Br)cc3F)CC2)C(=O)N1 (stereo not drawn) [Compound 97]
0.398	O=C1CCC(c2cccc(C(=O)O)c2)(C2CCN(Cc3ccc(Br)c(F)c3)CC2)C(=O)N1 (stereo not drawn) [Compound 99]
3.98	O=C1CCC(c2ccc(F)cc2)(C2CCN(Cc3ccc(C(F)(F)F)cc3)CC2)C(=O)N1 (stereo not drawn) [Compound 106]
3.98	COc1ccc(CN2CCC(C3(c4ccccc4)CCC(=O)NC3=O)CC2)cc1 (stereo not drawn) [Compound 107]
7.94	COc1ccc(CN2CCC(C3(c4ccccc4)CCC(=O)NC3=O)CC2)c(OC)c1 (stereo not drawn) [Compound 108]
7.94	O=C1CCC(c2cccc(C(F)(F)F)c2)(C2CCN(Cc3ccc(OC(F)F)cc3)CC2)C(=O)N1 (stereo not drawn) [Compound 110]
1	O=C1CCC(c2ccc(F)cc2)(C2CCN(Cc3ccc(OC(F)F)cc3)CC2)C(=O)N1 (stereo not drawn) [Compound 111]
7.94	O=C1CCC(c2cccc(Cl)c2)(C2CCN(Cc3ccc(OC(F)(F)F)cc3)CC2)C(=O)N1 (stereo not drawn) [Compound 114]
6.31	CSc1ccc(CN2CCC(C3(c4cccc(Cl)c4)CCC(=O)NC3=O)CC2)cc1 (stereo not drawn) [Compound 117]
6.31	O=C1CCC(c2ccccc2)(C2CCN(Cc3ccc(OCc4ccccc4)cc3)CC2)C(=O)N1 (stereo not drawn) [Compound 119]
1.58	CN1C(=O)CCC(c2ccccc2)(C2CCN(Cc3ccc(Cl)cc3)CC2)C1=O (stereo not drawn) [Compound 120]
6.31	COC(=O)CCN1C(=O)CCC(c2ccccc2)(C2CCN(Cc3ccc(Cl)cc3)CC2)C1=O (stereo not drawn) [Compound 121]
5.01	CN1C(=O)CCC(c2ccccc2)(C2CCN(Cc3ccc(Cl)c(Cl)c3)CC2)C1=O (stereo not drawn) [Compound 122]
1	COC(=O)CCN1C(=O)CCC(c2ccccc2)(C2CCN(Cc3ccc(Cl)cc3Cl)CC2)C1=O (stereo not drawn) [Compound 124]
3.98	CCCN1C(=O)CCC(c2ccccc2)(C2CCN(Cc3ccc(Br)cc3)CC2)C1=O (stereo not drawn) [Compound 128]
3.98	COC(=O)CCN1C(=O)CCC(c2ccccc2)(C2CCN(Cc3ccc(Br)cc3)CC2)C1=O (stereo not drawn) [Compound 130]
3.98	CN1C(=O)CCC(c2ccccc2)(C2CCN(Cc3ccc(C(F)(F)F)cc3)CC2)C1=O (stereo not drawn) [Compound 131]

Compound	IC50 [µM]
COc1cccc(C2(C3CCN(Cc4ccc(Cl)cc4Cl)CC3)CCC(=O)NC2=O)c1 (stereo not drawn) [Compound 74]	3.98
O=C1CCC(c2ccc(F)cc2)(C2CCN(Cc3ccc(Cl)cc3Cl)CC2)C(=O)N1 (stereo not drawn) [Compound 75]	2.51
O=C1CCC(c2cccc(Cl)c2)(C2CCN(Cc3ccc(Cl)c(F)c3)CC2)C(=O)N1 (stereo not drawn) [Compound 77]	0.794
Cc1cccc(C2(C3CCN(Cc4ccc(Cl)c(F)c4)CC3)CCC(=O)NC2=O)c1 (stereo not drawn) [Compound 78]	0.794
O=C1CCC(c2ccccc2)(C2CCN(Cc3ccc(Br)cc3F)CC2)C(=O)N1 (stereo not drawn) [Compound 94]	0.501
O=C1CCC(c2ccc(F)cc2)(C2CCN(Cc3ccc(Br)cc3F)CC2)C(=O)N1 (stereo not drawn) [Compound 98]	0.631
Cc1ccc(CN2CCC(C3(c4cccc(C)c4)CCC(=O)NC3=O)CC2)cc1 (stereo not drawn) [Compound 101]	2.51
O=C1CCC(c2ccccc2)(C2CCN(Cc3ccc(C(F)(F)F)cc3)CC2)C(=O)N1 (stereo not drawn) [Compound 102]	3.98
O=C1CCC(c2cccc(Cl)c2)(C2CCN(Cc3ccc(C(F)(F)F)cc3)CC2)C(=O)N1 (stereo not drawn) [Compound 103]	3.98
Cc1cccc(C2(C3CCN(Cc4ccc(C(F)(F)F)cc4)CC3)CCC(=O)NC2=O)c1 (stereo not drawn) [Compound 104]	3.98
O=C1CCC(c2ccccc2)(C2CCN(Cc3ccc(OC(F)F)cc3)CC2)C(=O)N1 (stereo not drawn) [Compound 109]	1
O=C1CCC(c2ccccc2)(C2CCN(Cc3ccc(OC(F)(F)F)cc3)CC2)C(=O)N1 (stereo not drawn) [Compound 112]	1
O=C1CCC(c2ccc(F)cc2)(C2CCN(Cc3ccc(OC(F)(F)F)cc3)CC2)C(=O)N1 (stereo not drawn) [Compound 113]	5.01
CSc1ccc(CN2CCC(C3(c4ccccc4)CCC(=O)NC3=O)CC2)cc1 (stereo not drawn) [Compound 116]	5.01

same assay, conditions: pIC50, -log IC50 (molar) inhibiting 50% of specific I-TAC-induced GTPγS-binding; membranes of human CXCR3-transfected CHO cells

Compound	IC50 [µM]
O=C1CCC(c2ccccc2)(C2CCN(Cc3ccc(Cl)c(C(F)(F)F)c3)CC2)C(=O)N1 (stereo not drawn) [Compound 86]	2
O=C1CCC(c2ccccc2)(C2CCN(Cc3ccc(Br)cc3)CC2)C(=O)N1 (stereo not drawn) [Compound 87]	0.794
O=C1CCC(c2ccccc2)(C2CCN(Cc3ccc(Br)cc3)CC2)C(=O)N1 (stereo not drawn) [Compound 88]	1.26

same assay, conditions: read-out: pIC50 (converted)

IC50 [µM]	Compound
0.316	O=C1CCC(c2ccccc2)(C2CCN(Cc3ccc(Cl)c(F)c3)CC2)C(=O)N1 (stereo not drawn) [Compound 76]
